Measured values from article PMC6624297 (Cell Death & Disease, 2019).

Legend:
[1] = tested on: SK-MES-1 cells; assay: MTT assay SK-MES-1; type: cell-based
[2] = tested on: SGC7901 cells; assay: MTT assay SGC7901; type: cell-based; details: Homo sapiens, SGC-7901, 24h of treatment, mean ± SD
Procedure: (§1) Details are given in Supplementary Materials and Methods. Using probability unit and weighted regression method to calculate the IC50 value of compounds.
(§2) Total cells in the logarithmic growth phase were collected, digested using 0.25% pancreatic enzymes, and then diluted into single-cell suspensions using phosphate-buffered solution (PBS). These cells were seeded into 96-well plates at 4× 10^3-5× 10^3 cells per well (100 µL per well) and then A549, H460, OVCAR-3, SGC7901, MDA-MB-231, HCT116 and HepG2 were cultured at 37°Cin an incubator containing 5% CO2. After cell complete attachment, 100 µL of different concentrations of compounds (0.625 μM, 1.25 μM, 2.5μM, 5 μM, 10 μM) were added to the cells after the nutrient solution in each well was discarded, while no compound except 0.1% DMSO was added to cells in the control group; at the same time, each concentration was set up to 5 wells. In addition, 5 wells in each 96-well plate only received 100 µL of nutrient solution as a blank control. The plates were taken out after the cells were incubated with compounds for 24 h, and 20 µL of MTT solution (5 mg/mL) (Wuhan Boster Biotechnology Limited Company, Wuhan, China; item No. AR1156) was added into all the wells. After another time of incubation for 4 h at 37 °C, the nutrient solution in each well was discarded slowly, and 150 µL of DMSO was added to each well. The plates were shaken on a shaking table for 20 min. When the crystals were fully dissolved, the blank wells were used to zero the plate reader. The optical density (OD) of each well was detected at 490 nm. The IC50 value was determined as the concentration of the inhibitor that caused 50% inhibition. Using probability unit and weighted regression method to calculate the IC50 value of compounds.

[3] = tested on: A549 cells; assay: MTT assay A549; type: cell-based, human; details: Homo sapiens, A549, 24h of treatment, mean ± SD
Procedure: as §1, §2

[4] = tested on: LO2 cell line; assay: Selectivity index against LO2; type: cell-based; details: SI = CC50/IC50
[5] = tested on: IOSE80 cell line; assay: Selectivity index against IOSE80; type: cell-based; details: SI = CC50/IC50
[6] = tested on: MDA-MB-231 cells; assay: MTT assay MDA-MB-231; type: cell-based; details: Homo sapiens, 24h of treatment, mean ± SD
Procedure: as §1, §2

[7] = target: BRaf kinase (Homo sapiens, UniProt P15056); assay: ADP-Glo kinase assay, BRaf; type: biochemical; details: averages from triplicate assays
Sequence of BRaf kinase (P15056 whole entry): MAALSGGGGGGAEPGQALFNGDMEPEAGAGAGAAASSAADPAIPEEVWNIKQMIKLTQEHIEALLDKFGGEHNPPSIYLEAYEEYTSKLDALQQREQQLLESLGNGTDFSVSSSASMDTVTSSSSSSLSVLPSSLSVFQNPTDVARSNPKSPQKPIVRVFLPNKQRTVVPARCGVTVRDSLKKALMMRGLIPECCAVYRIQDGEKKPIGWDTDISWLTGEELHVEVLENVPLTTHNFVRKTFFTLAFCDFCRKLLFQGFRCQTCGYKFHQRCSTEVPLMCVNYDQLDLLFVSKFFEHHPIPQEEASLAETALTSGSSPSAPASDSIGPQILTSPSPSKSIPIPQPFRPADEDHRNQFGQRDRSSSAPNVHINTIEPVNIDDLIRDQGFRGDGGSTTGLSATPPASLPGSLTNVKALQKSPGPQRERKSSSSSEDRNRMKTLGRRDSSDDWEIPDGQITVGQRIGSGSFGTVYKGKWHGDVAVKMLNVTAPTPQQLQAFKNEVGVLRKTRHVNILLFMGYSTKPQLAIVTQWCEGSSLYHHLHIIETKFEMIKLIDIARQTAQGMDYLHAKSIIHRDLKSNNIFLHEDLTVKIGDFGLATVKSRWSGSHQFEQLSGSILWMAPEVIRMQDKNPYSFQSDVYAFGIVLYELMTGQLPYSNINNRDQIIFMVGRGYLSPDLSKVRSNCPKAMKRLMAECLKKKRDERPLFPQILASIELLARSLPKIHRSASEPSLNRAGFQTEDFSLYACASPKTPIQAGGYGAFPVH
Procedure: (§3) The ADP-Glo™ kinase assay (Promega, Madison, WI) was used to screen target compounds for their inhibition effects for BRaf, EGFR kinase. The kinase assay was carried out in a 96-well plate, in a volume of 25 μL HEPES (pH 7.3) solvent containing 1.6 μg/mL EGF, and 20 ng of EGFR kinase, or 50 ng BRaf kinase, and 10 μM ATP (Promega, Madison, WI). […] Reactions in each well were started immediately by adding ATP and kept going for half an hour under 30 °C in a constant temperature incubator (Bluepard, Shanghai, China). After the plate cooled for 5 min at room temperature, 25 μl of ADP-Glo reagent was added into each well to stop the reaction and consume the remaining […] within 40 min. At the end, 50 μl of kinase detection reagent was added into the well and incubated for 1 h to produce a luminescence signal.

[8] = tested on: HCT-116 cells; assay: MTT assay HCT-116; type: cell-based; details: Homo sapiens, 24h of treatment, mean ± SD
Procedure: as §1, §2

[9] = tested on: HTB-125 cell line; assay: Selectivity index against HTB-125; type: cell-based; details: SI = CC50/IC50
[10] = tested on: GES-1 cell line; assay: Selectivity index against GES-1; type: cell-based; details: SI = CC50/IC50
[11] = target: EGFR kinase (Homo sapiens, UniProt P00533); assay: ADP-Glo kinase assay, EGFR; type: biochemical; details: averages from triplicate assays
Sequence of EGFR kinase (P00533 25-1210): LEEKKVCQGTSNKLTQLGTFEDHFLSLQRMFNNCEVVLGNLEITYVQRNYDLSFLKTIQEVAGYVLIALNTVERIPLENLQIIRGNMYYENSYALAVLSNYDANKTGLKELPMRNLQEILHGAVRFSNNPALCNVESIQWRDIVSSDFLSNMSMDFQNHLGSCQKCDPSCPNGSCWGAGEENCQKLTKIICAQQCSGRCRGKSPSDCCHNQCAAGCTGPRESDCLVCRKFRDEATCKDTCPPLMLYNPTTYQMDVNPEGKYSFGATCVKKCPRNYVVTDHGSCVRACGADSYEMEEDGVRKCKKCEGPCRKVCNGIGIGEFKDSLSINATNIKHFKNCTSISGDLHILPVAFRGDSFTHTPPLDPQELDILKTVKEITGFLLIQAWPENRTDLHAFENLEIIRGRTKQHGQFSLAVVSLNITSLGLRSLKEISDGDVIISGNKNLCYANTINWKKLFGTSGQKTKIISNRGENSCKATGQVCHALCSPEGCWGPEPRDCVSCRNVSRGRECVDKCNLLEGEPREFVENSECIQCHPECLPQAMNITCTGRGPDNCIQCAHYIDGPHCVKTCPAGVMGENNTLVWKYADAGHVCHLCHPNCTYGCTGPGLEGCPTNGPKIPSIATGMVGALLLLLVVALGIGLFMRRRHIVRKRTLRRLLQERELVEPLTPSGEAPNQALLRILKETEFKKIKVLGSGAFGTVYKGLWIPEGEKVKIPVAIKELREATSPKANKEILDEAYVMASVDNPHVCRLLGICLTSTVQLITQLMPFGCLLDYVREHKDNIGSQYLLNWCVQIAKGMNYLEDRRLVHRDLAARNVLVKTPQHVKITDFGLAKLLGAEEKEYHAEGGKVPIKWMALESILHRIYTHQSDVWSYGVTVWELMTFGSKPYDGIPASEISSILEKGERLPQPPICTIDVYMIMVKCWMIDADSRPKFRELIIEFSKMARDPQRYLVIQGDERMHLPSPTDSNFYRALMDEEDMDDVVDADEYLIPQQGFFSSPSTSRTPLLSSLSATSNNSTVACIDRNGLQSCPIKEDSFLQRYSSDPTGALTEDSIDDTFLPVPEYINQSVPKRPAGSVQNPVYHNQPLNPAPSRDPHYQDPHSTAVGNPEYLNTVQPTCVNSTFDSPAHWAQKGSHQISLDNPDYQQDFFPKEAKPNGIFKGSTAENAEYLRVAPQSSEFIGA
Procedure: as §3

[12] = tested on: A549 cells; assay: Transwell migration and wound healing, A549; type: cell-based, human; details: at high doses
Procedure: Cell migration ability was measured using transwell chambers (8-μm pore size; Corning Costar, Cambridge, MA, USA). For the transwell assay, A549 and H460 cells suspended in serum-free RPMI-1640 medium containing different concentrations of L14e (0, 0.5, 1.0, and 1.5 μM) were seeded into the upper chamber. The lower chamber contained RPMI-1640 medium supplemented with 20% serum. After 24 h incubation, the filters were fixed in methanol and stained with 0.1% crystal violet. The upper faces of the filters were gently abraded, and the lower faces with cells migrated across the filters were imaged and counted under the microscope. For wound healing assays, cells were placed into 6-well plates and cultured until 100% confluence. An artificial scratch was created using a 200 μL pipette tip. Add serum-free RPMI-1640 medium containing different concentrations of drugs. At 24 h after culturing in serum-free medium, wound closure images were captured in the same field under magnification. Cell healing rates were calculated by the fraction of cell coverage across the line. These experiments were performed in triplicate and repeated three times.

[13] = target: T1, human TS (hTS) (Homo sapiens, UniProt P04818); assay: Thymidylate synthase (TS) spectrophotometric assay; type: biochemical; details: averages from triplicate assays
T1 construct: purchased ProSpec-Tany
T1 sequence (P04818 whole entry): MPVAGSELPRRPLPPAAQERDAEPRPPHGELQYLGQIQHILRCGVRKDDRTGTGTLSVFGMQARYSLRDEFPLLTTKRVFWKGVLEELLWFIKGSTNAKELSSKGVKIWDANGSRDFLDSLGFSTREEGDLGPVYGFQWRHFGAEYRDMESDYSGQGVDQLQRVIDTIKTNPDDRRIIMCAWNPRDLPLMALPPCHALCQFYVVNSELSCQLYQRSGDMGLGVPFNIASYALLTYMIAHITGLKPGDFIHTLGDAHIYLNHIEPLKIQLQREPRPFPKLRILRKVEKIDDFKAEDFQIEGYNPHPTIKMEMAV
Procedure: Recombinant human thymidylate synthase purchased from ProSpec-Tany Company. TS was assayed spectrophotometrically at 30 °C and pH 7.4 in a mixture containing 0.1 M 2-mercaptoethanol, 0.0003 M (6R,S)-tetrahydrofolate, 0.012 M formaldehyde, 0.02 M MgCl2, 0.001 M dUMP, 0.04 M Tris–HCl, 30 nM hTS, and 0.00075 M NaEDTA. […] The reaction was initiated by the addition of an amount of enzyme yielding a change in absorbance at 340 nm of 0.016/min in the absence of inhibitor.

[14] = tested on: HepG2 cells; assay: MTT assay HepG2; type: cell-based; details: Homo sapiens, 24h of treatment, mean ± SD
Procedure: as §1, §2

[15] = tested on: OVCAR-3 cells; assay: MTT assay OVCAR-3; type: cell-based; details: Homo sapiens, 24h of treatment, mean ± SD
Procedure: as §1, §2

[16] = tested on: HCoEpiC cell line; assay: Selectivity index against HCoEpiC; type: cell-based; details: SI = CC50/IC50
[17] = tested on: HPAEpiC cell line; assay: Selectivity index against HPAEpiC; type: cell-based; details: SI = CC50/IC50
[18] = tested on: FVB mice; assay: Toxicity test in FVB mice; type: in vivo; details: mice, 3 weeks
Procedure: Blood was collected from euthanized mice under isoflurane-induced deep anesthesia by cardiac puncture. After allowing blood coagulation at 4 °C, serum was collected by centrifugation at 3000 rpm for 10 min at 4 °C. Analysis of the level of ALT, AST, Glu and CRE in the serum was performed using a veterinary hematology analyzer (Fuji DRI-Chem 3500 s, Fujifilm, Tokyo, Japan) according to the manufacturer’s provided protocols. The histopathological changes in liver, lung, brain, and kidney were evaluated by using HE-stained section of the tissues (This part of the results is in the supplementary document).
Tissues were fixed in 10% neutral-buffered formalin for 24 h, embedded in paraffin, cut into 4-μm-thick sections, deparaffinized with xylene and processed with a graded ethanol series. Next, the sections were stained with HE and were observed using Eclipse Ts2 microscope (Nikon).

| SMILES | inhibition of SK-MES-1 cells [1] | IC50 [2] | IC50 [3] | SI (Selectivity index) LO2 [4] | SI (Selectivity index) IOSE80 [5] | IC50 [6] | IC50 [7] | IC50 [8] | SI (Selectivity index) HTB-125 [9] | SI (Selectivity index) GES-1 [10] | IC50 [11] | inhibition of A549 cells migration [12] | IC50 [13] | IC50 [14] | IC50 [15] | SI (Selectivity index) HCoEpiC [16] | SI (Selectivity index) HPAEpiC [17] | melting point | histopathological changes in liver, lung, brain, and kidney (HE staining) [18] |
| --- | --- | --- | --- | --- | --- | --- | --- | --- | --- | --- | --- | --- | --- | --- | --- | --- | --- | --- | --- |
| O=C(NNC(=O)c1ccccc1NS(=O)(=O)c1c[nH]c(=O)[nH]c1=O)c1cccc(Cl)c1 [Compound 10l, reference compound] | did not inhibit | 1.82 ± 0.08 µM | 1.26 ± 0.16 µM | 12.57 | 11.90 | 2.04 ± 0.37 µM | 1.67 µM | 2.27 ± 0.23 µM | 5.26 | 14.25 | 2.71 µM | could inhibit A549 cells migration at high doses | 1.36 µM | 7.66 ± 0.77 µM | 2.08 ± 0.12 µM | 4.09 | 16.56 |  |  |
| Cc1ccccc1NC(=O)Nc1cccc(NS(=O)(=O)c2c[nH]c(=O)[nH]c2=O)c1 [Compound L15g, N'-(2-methylphenyl)-3-(2,4-dihydroxypyrimidine-5-sulfonamido)phenyl urea] |  | 7.04 ± 0.87 µM | 8.75 ± 0.61 µM |  |  | > 10 µM | > 10 µM | 6.41 ± 1.83 µM |  |  | > 10 µM |  | > 10 µM | 7.66 ± 0.78 µM | > 10 µM |  |  | 163 to 167 °C |  |
| Cc1cccc(NC(=O)Nc2cccc(NS(=O)(=O)c3c[nH]c(=O)[nH]c3=O)c2)c1 [Compound L15h, N'-(3-methylphenyl)-3-(2,4-dihydroxypyrimidine-5-sulfonamido)phenyl urea] |  | 4.78 ± 0.62 µM | 1.46 ± 0.5 µM |  |  | 6.41 ± 0.41 µM | 6.38 µM | 6.15 ± 0.53 µM |  |  | 7.1 µM |  | 7.16 µM | 5.97 ± 0.21 µM | 5.98 ± 0.6 µM |  |  | 165 to 169 °C |  |
| Cc1ccc(NC(=O)Nc2cccc(NS(=O)(=O)c3c[nH]c(=O)[nH]c3=O)c2)cc1 [Compound L15i, N'-(4-methylphenyl)-3-(2,4-dihydroxypyrimidine-5-sulfonamido)phenyl urea] |  | 6.96 ± 1.53 µM | 4.18 ± 0.46 µM |  |  | 9.06 ± 1.13 µM | 7.23 µM | 9.5 ± 1.6 µM |  |  | 8.67 µM |  | 8.3 µM | 6.96 ± 0.59 µM | > 10 µM |  |  | 173 to 175 °C |  |
| Nc1nc2[nH]cc(CCc3ccc(C(=O)N[C@@H](CCC(=O)O)C(=O)O)cc3)c2c(=O)[nH]1 [PTX, pemetrexed, reference compound] | did not inhibit | 6.96 ± 0.43 µM | 3.29 ± 0.15 µM |  |  | 4.18 ± 0.14 µM |  | 4.64 ± 0.22 µM |  |  |  |  |  |  | 7.35 ± 0.6 µM |  |  |  | no visible pathological changes |
